ChEMBL document CHEMBL1147867, “Identification of antitumour activity of novel derivatives of 8-aryl-2,6,7,8-tetrahydroimidazo[2,1-c][1,2,4]triazine-3,4-dione and 8-aryl-4-imino-2,3,7,8-tetrahydroimidazo[2,1-c][1,2,4]triazin-3(6H)-one” (Bioorg Med Chem, 2007)
Converted amounts (≈) assume the structure as drawn.

Key:
[1] = Cytotoxicity against human LS180 cells at 10 ug/ml after 72 hrs; format: functional; details: LS180, 72 h
HeLa [2] = assay: Cytotoxicity against human HeLa cells at 10 ug/ml after 72 hrs; format: functional
T47D [3] = assay: Cytotoxicity against human T47D cells at 10 ug/ml after 72 hrs; format: functional
[4] = Cytotoxicity against human LS180 cells at 50 ug/ml after 72 hrs; format: functional; details: LS180, 72 h
[5] = Cytotoxicity against Vero cells at 50 ug/ml after 72 hrs; format: cell-based; details: chlorocebus sabaeus, read-out: Inhibition
[6] = Cytotoxicity against Vero cells at 10 ug/ml after 72 hrs; format: cell-based; details: chlorocebus sabaeus, read-out: Inhibition
HeLa [7] = assay: Cytotoxicity against human HeLa cells at 50 ug/ml after 72 hrs; format: functional
T47D [8] = assay: Cytotoxicity against human T47D cells at 50 ug/ml after 72 hrs; format: functional
Escherichia coli = assay: Antibacterial activity against Escherichia coli after 24 hrs by microdilution broth method; format: functional
[9] = system: Staphylococcus epidermidis; assay: Antibacterial activity against Staphylococcus epidermidis after 24 hrs by microdilution broth method; format: functional
Staphylococcus aureus = assay: Antibacterial activity against Staphylococcus aureus after 24 hrs by microdilution broth method; format: functional
[10] = Cell viability in HSF cells at 50 uM after 24 hrs by MTT assay; format: cell-based, Fibroblast; details: human, read-out: Activity
[11] = Cell viability in HSF cells at 100 uM after 24 hrs by MTT assay; format: functional, Homo sapiens, Fibroblast
RPMI-8226 [12] = assay: Cell viability in human RPMI 8226 ECACC 87012702 cancer cells at 1 uM after 24 hrs by MTT assay; format: functional
A549 [13] = assay: Anticancer activity against human A549 cells at 50 ug/ml after 72 hrs; format: functional; details: A549, 72 h
[14] = Cell viability in HSF cells at 1 uM after 24 hrs by MTT assay; format: cell-based, Fibroblast; details: human, read-out: Activity
A549 [15] = assay: Anticancer activity against human A549 cells at 10 ug/ml after 72 hrs; format: functional; details: A549, 72 h
RPMI-8226 [16] = assay: Cell viability in human RPMI 8226 ECACC 87012702 cancer cells at 50 uM after 24 hrs by MTT assay; format: functional
RPMI-8226 [17] = assay: Cell viability in human RPMI 8226 ECACC 87012702 cancer cells at 100 uM after 24 hrs by MTT assay; format: functional
[18] = Acute toxicity in mouse; format: organism-based; details: in vivo
Streptococcus pyogenes = assay: Antibacterial activity against Streptococcus pyogenes after 24 hrs by microdilution broth method; format: functional

Row | MIC (Escherichia coli) [µM] | MIC [9] [µM] | MIC (Staphylococcus aureus) [µM] | Structure (SMILES) | inhibition at 10 µg/mL [1] [%] | inhibition at 10 µg/mL (HeLa [2]) [%] | inhibition at 10 µg/mL (T47D [3]) [%] | inhibition at 50 µg/mL [4] [%] | cytotoxicity at 72 h, 50 ug/ml [5] [%] | cytotoxicity at 72 h, 10 ug/ml [6] [%] | inhibition at 50 µg/mL (HeLa [7]) [%] | inhibition at 50 µg/mL (T47D [8]) [%] | viability at 24 h, 50 µM [10] [%] | Activity [11] [%] | Activity (RPMI-8226 [12]) [%] | inhibition at 50 µg/mL (A549 [13]) [%] | viability at 24 h, 1 µM [14] [%] | inhibition at 10 µg/mL (A549 [15]) [%] | Activity (RPMI-8226 [16]) [%] | Activity (RPMI-8226 [17]) [%] | further results
1 | – | – | – | N/N=C1\NCCN1c1cccc(Cl)c1 | 8 | 0 | 5 | 0 | 10 | 0 | 0 | 0 | – | – | – | – | – | – | – | – | –
2 | 35.8 (≈ 12.5 µg/mL) | 71.5 (≈ 25 µg/mL) | 35.8 (≈ 12.5 µg/mL) | CC1(C)S[C@@H]2[C@H](NC(=O)[C@H](N)c3ccccc3)C(=O)N2[C@H]1C(=O)O [AMPICILLIN] | – | – | – | – | – | – | – | – | – | – | – | – | – | – | – | – | –
3 | – | – | – | N=c1c(=O)[nH]nc2n1CCN2c1ccccc1Cl | 6 | 0 | 0 | 2 | 2 | 0 | 0 | 0 | 104 | 101 | 93 | 16 | 100 | 6 | 94 | 93 | –
4 | – | – | – | COc1ccc(N2CCn3c2n[nH]c(=O)c3=O)cc1 | 0 | 6 | 7 | 46 | 10 | 0 | 0 | 21 | 92 | 94 | 98 | 0 | 94 | 0 | 99 | 99 | LD50 [18]: 1500 mg/kg
5 | – | – | – | O=c1[nH]nc2n(c1=O)CCN2c1ccccc1 | 0 | 0 | 0 | 12 | 30 | 7 | 0 | 0 | 95 | 94 | 96 | 17 | 93 | 0 | 96 | 86 | LD50 [18]: 1400 mg/kg
6 | – | – | – | COc1ccccc1N1CCn2c1n[nH]c(=O)c2=O | 30 | 5 | 1 | 29 | 17 | 26 | 8 | 9 | 101 | 94 | 90 | 39 | 103 | 0 | 90 | 85 | LD50 [18]: 1100 mg/kg
7 | 12.1 (≈ 3.91 µg/mL) | 6 (≈ 1.94 µg/mL) | 12.1 (≈ 3.91 µg/mL) | O=C(N[C@H](CO)[C@H](O)c1ccc([N+](=O)[O-])cc1)C(Cl)Cl [CHLORAMPHENICOL] | – | – | – | – | – | – | – | – | – | – | – | – | – | – | – | – | –
8 | – | – | – | Cc1cccc(N2CCn3c2n[nH]c(=O)c3=O)c1C | 0 | 0 | 21 | 0 | 18 | 18 | 0 | 22 | – | – | – | 0 | – | 0 | – | – | –
9 | 41.1 (≈ 7.24 µg/mL) | 41.1 (≈ 7.24 µg/mL) | 41.1 (≈ 7.24 µg/mL) | N/N=C1\NCCN1c1ccccc1 | 1 | 6 | 0 | 0 | 0 | 0 | 3 | 0 | – | – | – | – | – | – | – | – | MIC (Streptococcus pyogenes): 65.8 µM (≈ 11.6 µg/mL)
10 | – | – | – | O=c1[nH]nc2n(c1=O)CCN2c1cccc(Cl)c1 | 0 | 27 | 0 | 0 | 24 | 11 | 38 | 0 | 91 | 91 | 89 | 0 | 95 | 0 | 68 | 62 | LD50 [18]: > 2000 mg/kg
11 | – | – | – | O=c1[nH]nc2n(c1=O)CCN2c1ccc(Cl)c(Cl)c1 | – | – | – | – | – | – | – | – | 90 | 90 | 98 | – | 109 | – | 35 | 25 | –
12 | 18.8 (≈ 3.84 µg/mL) | 18.8 (≈ 3.84 µg/mL) | 37.6 (≈ 7.68 µg/mL) | Cc1cccc(N2CCN/C2=N\N)c1C | 6 | 8 | 21 | 0 | 14 | 16 | 0 | 25 | – | – | – | – | – | – | – | – | MIC (Streptococcus pyogenes): 75.2 µM (≈ 15.4 µg/mL)
13 | 29.9 (≈ 6.17 µg/mL) | 37.4 (≈ 7.71 µg/mL) | 37.4 (≈ 7.71 µg/mL) | COc1ccccc1N1CCN/C1=N\N | – | – | – | – | – | – | – | – | – | – | – | – | – | – | – | – | MIC (Streptococcus pyogenes): 74.8 µM (≈ 15.4 µg/mL)
14 | 36.9 (≈ 7.77 µg/mL) | 18.4 (≈ 3.88 µg/mL) | 29.5 (≈ 6.21 µg/mL) | N/N=C1\NCCN1c1ccc(Cl)cc1 | – | – | – | – | – | – | – | – | – | – | – | – | – | – | – | – | MIC (Streptococcus pyogenes): 59.1 µM (≈ 12.5 µg/mL)
15 | – | – | – | N=c1c(=O)[nH]nc2n1CCN2c1cccc(Cl)c1 | 0 | 6 | 3 | 1 | 0 | 0 | 2 | 31 | – | – | – | 50 | – | 36 | – | – | –
16 | – | – | – | N=c1c(=O)[nH]nc2n1CCN2c1ccc(Cl)cc1 | 0 | 8 | 16 | 5 | 0 | 0 | 0 | 27 | 84 | 74 | 94 | 27 | 98 | 25 | 76 | 64 | –
17 | – | – | – | N/N=C1\NCCN1c1ccccc1Cl | 7 | 2 | 22 | 0 | 0 | 0 | 0 | 27 | – | – | – | – | – | – | – | – | –
18 | 15 (≈ 3.09 µg/mL) | 18.7 (≈ 3.86 µg/mL) | 29.9 (≈ 6.17 µg/mL) | COc1ccc(N2CCN/C2=N\N)cc1 | 4 | 0 | 17 | 9 | 0 | 0 | 0 | 23 | – | – | – | – | – | – | – | – | MIC (Streptococcus pyogenes): 59.8 µM (≈ 12.3 µg/mL)
19 | 15.7 (≈ 2.99 µg/mL) | 31.4 (≈ 5.97 µg/mL) | 39.3 (≈ 7.48 µg/mL) | Cc1ccccc1N1CCN/C1=N\N | – | – | – | – | – | – | – | – | – | – | – | – | – | – | – | – | MIC (Streptococcus pyogenes): 78.6 µM (≈ 15 µg/mL)
20 | – | – | – | Cc1ccc(N2CCn3c2n[nH]c(=O)c3=O)cc1 | 2 | 0 | 14 | 0 | 0 | 0 | 11 | 22 | 97 | 92 | 95 | 31 | 93 | 20 | 91 | 83 | LD50 [18]: 1800 mg/kg
21 | – | – | – | Cc1ccccc1N1CCn2c1n[nH]c(=O)c2=O | 0 | 0 | 0 | 0 | 0 | 0 | 0 | 0 | 110 | 108 | 101 | 29 | 104 | 24 | 121 | 133 | –
22 | – | – | – | Cc1ccc(N2CCN/C2=N\N)cc1 | 11 | 3 | 12 | 15 | 9 | 0 | 0 | 17 | – | – | – | – | – | – | – | – | –
23 | – | – | – | N=c1c(=O)[nH]nc2n1CCN2c1ccccc1 | 0 | 30 | 0 | 1 | 30 | 26 | 34 | 3 | 103 | 106 | 95 | 38 | 101 | 7 | 103 | 106 | –
